Our source for the EC50 values is patent US20090312306A1, “TETRAHYDRO-5H-PYRIDO[2,3-D]AZEPINES AS 5-HT2C LIGANDS” (priority 2006, published 2009).

This test deals with h5-HT2c (vsv) (Homo sapiens, UniProt P28335, I156V/I160V/N158S). Nature of the test: cell-based.
h5-HT2c (vsv), sequence (P28335 33-458 I156V/N158S/I160V limits assumed): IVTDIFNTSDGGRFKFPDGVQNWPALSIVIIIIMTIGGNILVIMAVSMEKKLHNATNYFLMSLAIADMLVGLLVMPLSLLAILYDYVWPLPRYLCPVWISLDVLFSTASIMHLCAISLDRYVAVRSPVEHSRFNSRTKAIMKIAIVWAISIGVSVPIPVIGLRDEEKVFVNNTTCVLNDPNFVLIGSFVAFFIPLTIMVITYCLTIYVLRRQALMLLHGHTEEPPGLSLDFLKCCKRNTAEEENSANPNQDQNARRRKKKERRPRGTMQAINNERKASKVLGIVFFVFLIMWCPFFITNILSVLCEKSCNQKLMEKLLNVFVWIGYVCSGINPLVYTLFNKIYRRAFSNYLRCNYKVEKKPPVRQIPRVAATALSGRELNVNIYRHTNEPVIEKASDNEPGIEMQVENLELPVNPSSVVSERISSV

Take `C=C(C)c1ccc2c(n1)CCNCC2`: the midpoint of the response, the EC50, lay at 79.1 nM.
The value for `CN(C)c1ccc2c(n1)CCNCC2` was 213 nM; that for `CC(C)c1ccc2c(n1)C(C)CNCC2` (stereo not drawn) was 295 nM; that for `CCN(C)c1ccc2c(n1)CCNCC2` was 18 nM.
The value for `CCN(CC)c1ccc2c(n1)CCNCC2` was 77.3 nM; that for `c1cc2c(nc1N1CCCCC1)CCNCC2` was 10.6 nM; that for `c1cc2c(nc1N1CCOCC1)CCNCC2` was 63.9 nM.
The value for `COc1nc2c(cc1Br)CCNCC2` was 64.1 nM; that for `c1cc2c(nc1N1CCCCCC1)CCNCC2` was 10.2 nM; that for `CC(C)(C)c1ccc2c(n1)CCNCC2` was 106 nM.
Consider `c1cc2c(nc1N1CCCNCC1)CCNCC2`, for which the midpoint of the response, the EC50, lay at 262 nM.
The value for `CCN(C)c1nc2c(cc1Br)CCNCC2` was 100 nM; that for `Brc1cc2c(nc1N1CCCCC1)CCNCC2` was 192 nM; that for `CCN(C)c1ccc2c(n1)C(C)CNCC2` (stereo not drawn) was 29.2 nM.
The value for `CC1CNCCc2ccc(N3CCCCC3)nc21` (stereo not drawn) was 13.1 nM; that for `CC1CNCCc2ccc(N3CCOCC3)nc21` (stereo not drawn) was 47.7 nM.
As to `c1cc2c(nc1N1CCC3(CC1)OCCO3)CCNCC2`, the midpoint of the response, the EC50, lay at 290 nM.
On to `CC(C)C1CNCCc2ccc(N3CCCCC3)nc21` (stereo not drawn), for which the EC50 (usually the concentration needed to bring the measured effect to its halfway point) is 65.4 nM.
The value for `CC(C)C1CNCCc2ccc(N3CCCCCC3)nc21` (stereo not drawn) was 139 nM; that for `CC1CNCCc2ccc(N3CCCCCC3)nc21` (stereo not drawn) was 6.2 nM; that for `O=C1CCN(c2ccc3c(n2)CCNCC3)CC1` was 299 nM.
Consider `CC(C)N(C)c1ccc2c(n1)CCNCC2`, for which the response was half-maximal at 85.4 nM (EC50).
The value for `FC1(F)CCN(c2ccc3c(n2)CCNCC3)CC1` was 11.4 nM.
The value for `FC1CCN(c2ccc3c(n2)CCNCC3)CC1` was 7.9 nM; that for `c1cc2c(nc1N1CCSCC1)CCNCC2` was 2.3 nM; that for `c1cc2c(nc1N1CCCOCC1)CCNCC2` was 10.5 nM.
Regarding `Clc1cc2c(nc1N1CCCCC1)CCNCC2`, the EC50 stood at 74.2 nM.
`Clc1cc2c(nc1N1CCOCC1)CCNCC2`: the EC50 was 176 nM.
Regarding `CCC1CNCCc2ccc(N(C)CC)nc21` (stereo not drawn), the EC50 was 35.9 nM.
The value for `CCC1CNCCc2ccc(N3CCCCC3)nc21` (stereo not drawn) was 16.4 nM; that for `CCC1CNCCc2ccc(N3CCOCC3)nc21` (stereo not drawn) was 101 nM; that for `CCN(C)c1ccc2c(n1)[C@H](C)CNCC2` was 8.3 nM.
Take `C[C@@H]1CNCCc2ccc(N3CCCCC3)nc21`: the EC50 worked out at 2.1 nM.
As for `C[C@@H]1CNCCc2ccc(N3CCOCC3)nc21`, the figure is 58.1 nM.
The value for `c1cc2c(nc1N1C3CCCC1CC3)CCNCC2` was 138 nM; that for `FC1(F)CCCN(c2ccc3c(n2)CCNCC3)CC1` was 24 nM; that for `[O-][S+]1CCN(c2ccc3c(n2)CCNCC3)CC1` was 5.1 nM.
The value for `CC1CNCCc2ccc(N3CCC(F)(F)CC3)nc21` (stereo not drawn) was 29.4 nM; that for `CC1CNCCc2ccc(N3CCC(F)CC3)nc21` (stereo not drawn) was 13.6 nM; that for `CC1CNCCc2ccc(N3CCCOCC3)nc21` (stereo not drawn) was 21.7 nM.
`FC1CCN(c2nc3c(cc2Cl)CCNCC3)CC1` had an EC50 of 95.8 nM.
The value for `Clc1cc2c(nc1N1CCCOCC1)CCNCC2` was 67.8 nM.
